From patent publication US20240358692A1, “TREATMENT OF SCLERODERMA” (Aisa Pharma, Inc., priority 2023, published 2024)
Entries after “also recorded” stand apart in the source; their conditions may differ. Like-named read-outs stand apart in the source and are kept apart here.

Key:
participants with SSc-RP [1] = test: SHAQ - Visual Analog Scale - Raynaud's; type: in vivo, human; design: SHAQ Visual Analogue Scale - Raynaud's, In-Clinic Visit (Day 12), Mean / SHAQ Visual Analogue Scale - Raynaud's, In-Clinic Visit (Day 12), Median / SHAQ Visual Analogue Scale - Raynaud's: In-Clinic Visit (Day 12), Median: scale not given here; conditions: for % change VAS Raynauds: SHAQ, mITT Part A
Source text: The SHAQ includes a Raynaud's VAS, which will be reported at screening and each in-clinic visit. The absolute change in Raynaud-VAS, assessed by the participants response to the SHAQ question ‘In the past 7 days, how much have your Raynaud's interfered with your daily activities?’ at baseline and the end of each dosing period will be calculated similar to frequency data as before.
The standard, validated, patient reported outcome measures tool for SSc patients, the SHAQ, was collected at the time points specified in the study schedules (FIG. 2 and FIGS. 4A and 4B) to assess the participant's quality of life. The SHAQ included a Raynaud's VAS that will also be reported separately.

participants with SSc-RP [2] = type: in vivo
Source text: Treatment-emergent AEs (TEAEs) are defined as AEs that occur or worsen after the dose of study drug. If the timing of the start of an AE could not be determined unambiguously from the start or end dates provided, it will be assumed to be a TEAE. An AE is considered related if the relationship to either of the study drug has been indicated as possibly or probably or definite related by the investigator. An AE leading to study withdrawal is defined as an AE that cause a subject early terminated from the study. AEs will be identified as emerging in the following parts: • TEAEs for Part A will be those that started during Part A (i.e., from the first dose in Part A to end of follow up of Part A) • TEAEs for Part B will be those that started during Part B (i.e., from the first dose in Part B to end of follow-up of Part B).
In this study, AEs and SAEs were reported for all participants from the time of randomization until the completion of the Follow-up/EOS visit. Adverse events that were ongoing at the EOS visit were marked as Not Recovered/Not resolved on the AE eCRF page (see Section 9.4.4). The Investigator did full AE review during in-clinic visit. All spontaneously volunteered and enquired for, as well as observed AEs, were recorded in the participant's medical records and the eCRF.
Severity of AEs were graded by the Investigator as one of: • Mild (Grade 1): A type of AE that is usually transient and may require only minimal treatment or therapeutic intervention.

[3] = Any Cilnidipine (N = 17), Day 12, PP Population, Part A
[4] = Cilnidipine 20 mg (N = 4), Day 12, PP Population, Part A
[5] = Pooled Cilnidipine 10 mg and Cilnidipine 10 mg + Tadalafil 5 mg (N = 9), Day 12, PP Population, Part A
[6] = Pooled Cilnidipine 20 mg and Cilnidipine 20 mg + Tadalafil 5 mg (N = 7), Modified ITT Population - Part A
[7] = Pooled Cilnidipine (N = 8), Day 12, PP Population, Part A
[8] = cilnidipine 10 mg (combination: + tadalafil 5 mg)
[9] = cilnidipine 20 mg (combination: + tadalafil 5 mg)

## COCCOC(=O)C1=C(C)NC(C)=C(C(=O)OC/C=C/c2ccccc2)C1c1cccc([N+](=O)[O-])c1 (stereo not shown) [Cilnidipine]
Participants with SSc-RP [1]; [3]
  SHAQ Visual Analogue Scale - Raynaud's, Change from Baseline, Mean (SD): −0.696 (1.3935)
  SHAQ Visual Analogue Scale - Raynaud's, Change from Baseline, Median: −0.300
  SHAQ Visual Analogue Scale - Raynaud's, In-Clinic Visit (Day 12), Mean (SD): 2.022 (1.8357)
  SHAQ Visual Analogue Scale - Raynaud's, In-Clinic Visit (Day 12), Median: 1.400
  SHAQ Visual Analogue Scale - Raynaud's, Percent Change from Baseline, Mean (SD): −20.44 (55.098) %
  SHAQ Visual Analogue Scale - Raynaud's, Percent Change from Baseline, Median: −33.33%
Participants with SSc-RP [1]; Cilnidipine 10 mg (N = 4), Day 12, PP Population, Part A
  SHAQ Visual Analogue Scale - Raynaud's, Change from Baseline, Median: 0.350
Participants with SSc-RP [1]; [4]
  SHAQ Visual Analogue Scale - Raynaud's, Change from Baseline, Mean: −1.200
  SHAQ Visual Analogue Scale - Raynaud's, In-Clinic Visit (Day 12), Median: 1.250
Participants with SSc-RP [1]; Cilnidipine 20 mg (n = 3)
  % change VAS Raynauds: −49%
Participants with SSc-RP [1]; Cilnidipine 20 mg, Day 12 vs Baseline, PP Population Part A, sensitivity analysis
  SHAQ Visual Analogue Scale - Raynaud's, Percent Change from Baseline, Median: −38.67%
Participants with SSc-RP [1]; [5]
  SHAQ Visual Analogue Scale - Raynaud's, Change from Baseline, Mean: −0.414
  SHAQ Visual Analogue Scale - Raynaud's, Change from Baseline, Median: −0.100
  SHAQ Visual Analogue Scale - Raynaud's, In-Clinic Visit (Day 12), Median: 2.600
  SHAQ Visual Analogue Scale - Raynaud's, Percent Change from Baseline, Mean: −9.97%
  SHAQ Visual Analogue Scale - Raynaud's, Percent Change from Baseline, Median: −4.39%
Participants with SSc-RP [1]; Pooled Cilnidipine 20 mg and Cilnidipine 20 mg + Tadalafil 5 mg (N = 7), Day 12, Modified ITT Population - Part A
  SHAQ Visual Analogue Scale - Raynaud's, Change from Baseline, Median: −0.300
Participants with SSc-RP [1]; [6]
  SHAQ Visual Analogue Scale - Raynaud's, In-Clinic Visit (Day 12), Mean: 1.300
  SHAQ Visual Analogue Scale - Raynaud's, In-Clinic Visit (Day 12), Median: 0.600
Participants with SSc-RP [1]; Pooled Cilnidipine 20 mg and Cilnidipine 20 mg + Tadalafil 5 mg (N = 8), Day 12, PP Population, Part A
  SHAQ Visual Analogue Scale - Raynaud's, In-Clinic Visit (Day 12), Median: 0.850
Participants with SSc-RP [1]; [7]
  SHAQ Visual Analogue Scale - Raynaud's, Change from Baseline, Mean (SD): −0.438 (1.2094)
  SHAQ Visual Analogue Scale - Raynaud's, In-Clinic Visit (Day 12), Mean: 1.900
  SHAQ Visual Analogue Scale - Raynaud's, In-Clinic Visit (Day 12), Mean (SD): 1.900 (1.6861)
  SHAQ Visual Analogue Scale - Raynaud's, Percent Change from Baseline, Mean (SD): −18.62 (75.571) %
Participants with SSc-RP [1]; Pooled Cilnidipine (n = 7)
  % change VAS Raynauds: −17%
Participants with SSc-RP [1]; Sensitivity Analysis (diagnosis of SSc), Modified ITT, Part A, Day 12, Any Cilnidipine (N = 14)
  SHAQ Visual Analogue Scale - Raynaud's: Change from Baseline, Median: −0.300
Participants with SSc-RP [1]; Sensitivity Analysis (diagnosis of SSc), Modified ITT, Part A, Day 12, Pooled Cilnidipine (N = 6)
  SHAQ Visual Analogue Scale - Raynaud's: Percent Change from Baseline, Mean: −18.64%
Participants with SSc-RP [1]; Sensitivity Analysis (diagnosis of SSc), Modified ITT, Part A, Day 12, arms Cilnidipine 10 mg, Tadalafil 5 mg, Cilnidipine 10 mg + Tadalafil 5 mg
  SHAQ Visual Analogue Scale - Raynaud's: In-Clinic Visit (Day 12), Median: 2.600
Participants with SSc-RP [1]; Sensitivity Analysis (diagnosis of SSc), Modified ITT, Part A, Day 12, arms Cilnidipine 20 mg, Cilnidipine 20 mg + Tadalafil 5 mg
  SHAQ Visual Analogue Scale - Raynaud's: In-Clinic Visit (Day 12), Median: 1.100
Participants with SSc-RP [1]; [8]
  VAS Raynaud's Change from Baseline Max: 1.50
  VAS Raynaud's Change from Baseline Median: 0.350
  VAS Raynaud's Change from Baseline Min: −0.90
  VAS Raynaud's Change from Baseline Q1: −0.500
  VAS Raynaud's Change from Baseline Q3: 1.150
  VAS Raynaud's Day 12 Max: 4.30
  VAS Raynaud's Day 12 Median: 1.700
  VAS Raynaud's Day 12 Min: 0.00
  VAS Raynaud's Day 12 Q1: 0.400
  VAS Raynaud's Day 12 Q3: 3.450
  VAS Raynaud's Percent Change from Baseline Max: 136.4%
  VAS Raynaud's Percent Change from Baseline Mean: 11.36%
  VAS Raynaud's Percent Change from Baseline Median: −2.27%
  VAS Raynaud's Percent Change from Baseline Min: −100.0%
  VAS Raynaud's Percent Change from Baseline Q1: −100.00%
Participants with SSc-RP [1]; [9]
  VAS Raynaud's Change from Baseline Max: −0.30
  VAS Raynaud's Change from Baseline Mean: −1.267
  VAS Raynaud's Change from Baseline Median: −1.100
  VAS Raynaud's Change from Baseline Min: −2.40
  VAS Raynaud's Change from Baseline Q1: −2.400
  VAS Raynaud's Change from Baseline Q3: −0.300
  VAS Raynaud's Day 12 Max: 1.40
  VAS Raynaud's Day 12 Median: 1.100
  VAS Raynaud's Day 12 Min: 0.60
  VAS Raynaud's Day 12 Q1: 0.600
  VAS Raynaud's Day 12 Q3: 1.400
  VAS Raynaud's Percent Change from Baseline Mean: −48.63%
  VAS Raynaud's Percent Change from Baseline Median: −44.00%
  VAS Raynaud's Percent Change from Baseline Min: −68.6%
  VAS Raynaud's Percent Change from Baseline Q1: −68.57%
  VAS Raynaud's Percent Change from Baseline Q3: −33.33%
Participants with SSc-RP [2]; 10 mg and 20 mg, alone or in combination with tadalafil
  tolerability: well tolerated
Participants with SSc-RP [2]; Cilnidipine 20 mg, HA, mild, n = 8
  Safety: number of AE: 1AE (HA−mild; 1
Participants with SSc-RP [2]; Cilnidipine 20 mg, n = 8
  Safety: withdrawals: 1AE (HA−mild; 1 withdrawal
Participants with SSc-RP [2]; Pooled Cilnidipine, n = 9
  Safety: withdrawals: T); no withdrawals
Participants with SSc-RP [2]; all patients who received any dose of cilnidipine (n=17)
  treatment discontinuations due to intolerance: no treatment discontinuations due to intolerance were reported
Participants with SSc-RP [2]; all patients who received any dose of cilnidipine (n=17), Part A
  incidence of Adverse Events / overall adverse event rate: 17%
Participants with SSc-RP [2]; any Profervia dose
  Adverse effects: 17% Adverse effects in
Participants with SSc-RP [2]; patients treated with cilnidipine, Part A
  severity grade of adverse events: only Grade 1 Adverse Events (AEs) were reported; also recorded: only mild (Grade 1) adverse events occurred
Participants with SSc-RP [2]; summary of data
  Safety: grade of Adverse Events (AEs): Grade 1 Adverse
  Safety: treatment D/Cs (discontinuations): No treatment D/Cs
